Results as given in patent US20230183243A1, “HETEROARYL DERIVATIVES AND PHARMACEUTICAL COMPOSITION COMPRISING SAME AS ACTIVE INGREDIENT” (VORONOI INC., priority 2019, published 2023).
Counter-ions that a name gives are not always drawn.

How the values were obtained:
TTK = target: T1, TTK (Homo sapiens, UniProt P33981); assay: TTK enzyme activity, ADP-Glo kinase assay; assay type: biochemical; set-up: purchased SignalChem T20-10G; details: purified human TTK, ATP 10 μM, 25° C., 2 hours
T1 sequence (P33981 1-857): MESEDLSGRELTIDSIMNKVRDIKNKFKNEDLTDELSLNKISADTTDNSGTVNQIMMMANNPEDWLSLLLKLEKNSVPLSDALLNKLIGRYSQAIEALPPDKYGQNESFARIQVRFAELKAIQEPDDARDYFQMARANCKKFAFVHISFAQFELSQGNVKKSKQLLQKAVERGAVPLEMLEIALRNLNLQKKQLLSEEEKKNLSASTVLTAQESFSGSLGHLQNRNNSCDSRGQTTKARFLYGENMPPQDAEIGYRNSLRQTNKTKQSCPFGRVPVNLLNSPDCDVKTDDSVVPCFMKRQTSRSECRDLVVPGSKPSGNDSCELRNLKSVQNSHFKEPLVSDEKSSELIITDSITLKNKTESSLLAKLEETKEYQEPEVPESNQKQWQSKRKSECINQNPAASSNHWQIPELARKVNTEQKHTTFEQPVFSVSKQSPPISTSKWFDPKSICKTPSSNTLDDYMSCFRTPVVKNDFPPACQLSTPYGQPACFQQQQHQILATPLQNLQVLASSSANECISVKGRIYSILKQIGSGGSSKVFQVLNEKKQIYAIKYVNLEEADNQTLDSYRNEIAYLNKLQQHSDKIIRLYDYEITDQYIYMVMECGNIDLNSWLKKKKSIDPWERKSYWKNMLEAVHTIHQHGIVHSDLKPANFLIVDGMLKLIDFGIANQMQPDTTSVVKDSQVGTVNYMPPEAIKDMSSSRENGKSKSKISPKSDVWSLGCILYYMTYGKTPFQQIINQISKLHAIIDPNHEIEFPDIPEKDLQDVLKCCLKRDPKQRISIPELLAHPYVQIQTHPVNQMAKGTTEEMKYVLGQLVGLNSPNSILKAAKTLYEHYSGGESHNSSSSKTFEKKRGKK
In short: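 Purified human TTK (25 ng) incubated with 10 μM ATP and substrate (0.2 μg) for 2 h at 25 °C in Tris-HCl pH 7.4, MgCl2, BSA, DTT buffer. ADP formation read by ADP-Glo; inhibition calculated against untreated solvent control.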

MDA-MB-231 cells = assay: Inhibition of proliferation of triple-negative breast cancer cells, CellTiter-Glo; assay type: cell-based; details: Homo sapiens, 120 h; MDA-MB-231, cultured for 5 days
In short: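 MDA-MB-231 cells pre-cultured 24 h (5% CO2, 37 °C), then exposed to compound for 5 days at 12 three-fold dilutions, final 10 μM to 0.05 nM. Viability read by CellTiter-Glo luminescence after 10 min at 37 °C; growth inhibition calculated relative to untreated solvent-control cells.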

SHP-77 = assay: Inhibition of proliferation of small cell lung cancer cells, CellTiter-Glo; assay type: cell-based; details: Homo sapiens, SHP77, 120 h; SHP-77, cultured for 5 days
In short: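 SHP-77 cells at 2,000–3,000 cells/well, cultured 24 h at 37° C, 5% CO2, then given 12 threefold compound dilutions, final 10 μM to 0.05 nM, for 5 days. Viability by CellTiter-Glo luminescence relative to solvent control. GI50 from concentration–response.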

| Compound | IC50 (TTK) [nM] | GI50 (MDA-MB-231 cells) [nM] | GI50 (SHP-77) [nM] |
| --- | --- | --- | --- |
| COC[C@@H](C)Nc1nc(Nc2ccc(-c3ccnn3C)cc2OC)nc2[nH]cc(C#N)c12 [Example 168, (R)-2-((2-methoxy-4-(1-methyl-1H-pyrazol-5-yl)phenyl)amino)-4-((1-methoxypropan-2-yl)amino)-7H-pyrrolo[2,3-d] pyrimidine-5-carbonitrile] | < 50 | < 100 | < 100 |
| Cn1cc(-c2ccc(Nc3nc(NC4CCOC(C)(C)C4)c4c(C#N)c[nH]c4n3)c3c2OCCO3)cn1 (stereo not drawn) [Example 145, 4-((2,2-dimethyltetrahydro-2H-pyran-4-yl)amino)-2-((8-(1-methyl-1H-pyrazol-4-yl)-2,3-dihydrobenzo[b][1,4]dioxin-5-yl)amino)-7H-pyrrolo[2,3-d] pyrimidine-5-carbonitrile] | < 50 | < 100 | < 100 |
| Cn1nccc1-c1ccc(Nc2nc(NC3CCOC(C)(C)C3)c3c(C(F)(F)F)c[nH]c3n2)c2c1OCCO2 (stereo not drawn) [Example 172, N^4-(2,2-dimethyltetrahydro-2H-pyran-4-yl)-N^2-(8-(1-methyl-1H-pyrazol-5-yl)-2,3-dihydrobenzo[b][1,4]dioxin-5-yl)-5-(trifluoromethyl)-7H-pyrrolo[2,3-d] pyrimidine-2,4-diamine] | < 50 | < 100 | < 100 |
| Cn1nccc1-c1ccc(Nc2nc(NCCS(C)(=O)=O)c3c(C#N)c[nH]c3n2)c2c1OCCO2 [Example 84, 2-((8-(1-methyl-1H-pyrazol-5-yl)-2,3-dihydrobenzo[b][1,4]dioxin-5-yl)amino)-4-((2-(methylsulfonyl)ethyl)amino)-7H-pyrrolo[2,3-d] pyrimidine-5-carbonitrile] | < 50 | > 1000 | > 1000 |
| N#Cc1c[nH]c2nc(Nc3ccc(N4CCCC4=O)c4c3OCCO4)nc(NC3CCCCCC3)c12 [Example 151, 4-(cycloheptylamino)-2-((8-(2-oxopyrrolidin-1-yl)-2,3-dihydrobenzo[b][1,4]dioxin-5-yl)amino)-7H-pyrrolo[2,3-d] pyrimidine-5-carbonitrile] | < 50 | < 100 | < 100 |
| COc1cc(-c2ccccc2)ccc1Nc1nc(NC2CCOCC2)c2c(C#N)c[nH]c2n1 [Example 134, 2-((3-methoxy-[1,1 biphenyl]-4-yl)amino)-4-((tetrahydro-2H-pyran-4-yl)amino)-7H-pyrrolo[2,3-d] pyrimidine-5-carbonitrile] | < 50 | < 100 | < 100 |
| Cn1nccc1-c1ccc(Nc2nc(NCC(C)(C)C)c3c(C#N)c[nH]c3n2)c2c1OCCO2 [Example 60, 2-((8-(1-methyl-1H-pyrazol-5-yl)-2,3-dihydrobenzo[b][1,4]dioxin-5-yl)amino)-4-(neopentylamino)-7H-pyrrolo[2,3-d] pyrimidine-5-carbonitrile] | 50 to 200 | < 100 | < 100 |
| COc1cc(-c2ccnn2C)ccc1Nc1nc(NC2CCCC(F)(F)C2)c2c(C#N)c[nH]c2n1 (stereo not drawn) [Example 152, 4-((3,3-difluorocyclohexyl)amino)-2-((2-methoxy-4-(1-methyl-1H-pyrazol-5-yl)phenyl)amino)-7H-pyrrolo[2,3-d] pyrimidine-5-carbonitrile] | 50 to 200 | < 100 | < 100 |
| COCCNc1nc(Nc2ccc(-n3ccnc3C)cc2OC)nc2[nH]cc(C#N)c12 [Example 98, 2-((2-methoxy-4-(2-methyl-1H-imidazol-1-yl)phenyl)amino)-4-((2-methoxyethyl)amino)-7H-pyrrolo[2,3-d] pyrimidine-5-carbonitrile] | < 50 | < 100 | < 100 |
| COc1cc(-c2c(C)noc2C)c(F)cc1Nc1nc(NC2CCCC2)c2c(C#N)c[nH]c2n1 [Example 104, 4-(cyclopentylamino)-2-((4-(3,5-dimethylisoxazol-4-yl)-5-fluoro-2-methoxyphenyl)amino)-7H-pyrrolo[2,3-d] pyrimidine-5-carbonitrile] | 50 to 200 | 100 to 1000 | 100 to 1000 |
| N#Cc1c[nH]c2nc(Nc3ccc(N4CCCS4(=O)=O)cc3)nc(NC3CCOCC3)c12 [Example 166, 2-((4-(1,1-dioxidoisothiazolidin-2-yl)phenyl)amino)-4-((tetrahydro-2H-pyran-4-yl)amino)-7H-pyrrolo[2,3-d] pyrimidine-5-carbonitrile] | < 50 | < 100 | < 100 |
| Cn1nccc1-c1ccc(Nc2nc(NCC3CCCC3)c3c(C#N)c[nH]c3n2)c2c1OCCO2 [Example 50, 4-((cyclopentylmethyl)amino)-2-((8-(1-methyl-1H-pyrazol-5-yl)-2,3-dihydrobenzo[b][1,4]dioxin-5-yl)amino)-7H-pyrrolo[2,3-d] pyrimidine-5-carbonitrile hydrochloride] | 50 to 200 | < 100 | < 100 |
| Cn1nccc1-c1ccc(Nc2nc(NC3CCOCC3)c3c(C(F)(F)F)c[nH]c3n2)c2c1OCCO2 [Example 107, N^2-(8-(1-methyl-1H-pyrazol-5-yl)-2,3-dihydrobenzo[b][1,4]dioxin-5-yl)-N^4-(tetrahydro-2H-pyran-4-yl)-5-(trifluoromethyl)-7H-pyrrolo[2,3-d] pyrimidine-2,4-diamine] | 50 to 200 | < 100 | < 100 |
| COc1cc(Nc2nc(NC3CCOCC3)c3c(C#N)c[nH]c3n2)ccc1-c1c(C)noc1C [Example 138] | < 50 | < 100 | < 100 |

More lines, now with the values ahead:

| IC50 (TTK) [nM] | GI50 (MDA-MB-231 cells) [nM] | GI50 (SHP-77) [nM] | Compound |
| --- | --- | --- | --- |
| 50 to 200 | 100 to 1000 | < 100 | Cn1nccc1-c1ccc(Nc2nc(NC3CCCC3)c3c(Cl)c[nH]c3n2)c2c1OCCO2 [Example 128, 5-chloro-N^4-cyclopentyl-N^2-(8-(1-methyl-1H-pyrazol-5-yl)-2,3-dihydrobenzo[b][1,4]dioxin-5-yl)-7H-pyrrolo[2,3-d] pyrimidine-2,4-diamine] |
| < 50 | < 100 | < 100 | COc1cc(-c2nncn2C)ccc1Nc1nc(NC2CCOC(C)(C)C2)c2c(C#N)c[nH]c2n1 (stereo not drawn) [Example 143, 4-((2,2-dimethyltetrahydro-2H-pyran-4-yl)amino)-2-((2-methoxy-4-(4-methyl-4H-1,2,4-triazol-3-yl)phenyl)amino)-7H-pyrrolo[2,3-d] pyrimidine-5-carbonitrile] |
| < 50 | < 100 | < 100 | COc1cc(-c2cccc(O)c2)ccc1Nc1nc(NC2CCOCC2)c2c(C#N)c[nH]c2n1 [Example 141, 2-((3′-hydroxy-3-methoxy-[1,1′-biphenyl]-4-yl)amino)-4-((tetrahydro-2H-pyran-4-yl)amino)-7H-pyrrolo[2,3-d] pyrimidine-5-carbonitrile] |
| < 50 | > 1000 | > 1000 | COc1cc(-c2cnn(C)c2)c(F)cc1Nc1nc(NC2CCCCC2)c2c(C#N)c[nH]c2n1 [Example 126, 4-(cyclohexylamino)-2-((5-fluoro-2-methoxy-4-(1-methyl-1H-pyrazol-4-yl)phenyl)amino)-7H-pyrrolo[2,3-d] pyrimidine-5-carbonitrile] |
| 50 to 200 | < 100 | < 100 | COc1cc(-c2ccnn2C)ccc1Nc1cc(NC2CCCC2)c2c(C#N)c[nH]c2n1 [Example 87, 4-(cyclopentylamino)-6-((2-methoxy-4-(l-methyl-1H-pyrazol-5-yl)phenyl)amino)-1H-pyrrolo[2,3-b] pyridine-3-carbonitrile] |
| < 50 | 100 to 1000 | 100 to 1000 | CC(C)S(=O)(=O)CCNc1nc(Nc2ccc(-c3ccnn3C)c3c2OCCO3)nc2[nH]cc(C#N)c12 [Example 83, 4-((2-(isopropylsulfonyl)ethyl)amino)-2-((8-(1-methyl-1H-pyrazol-5-yl)-2,3-dihydrobenzo[b][1,4]dioxin-5-yl)amino)-7H-pyrrolo[2,3-d] pyrimidine-5-carbonitrile 2,2,2-trifluoroacetate] |
